We go through 10 compounds from ChEMBL document CHEMBL1201862, “PubChem BioAssay data set” (2004).

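A five-concentration, 48-hour dose response in 96-well plates underlies each endpoint, interpolated linearly between surrounding concentrations. GI50: concentration for 50% inhibition of growth.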 Activity calls are given as the source filed them. Rule as the data show it: active = GI50 up to about 1.1 µM and inactive = higher.

Holding throughout (assay): DTP human tumour cell line panel, 48 h
For experiment [1], the system named is NCI-H23.
For experiment [2], the system named is EKVX.
The subject of experiment [3] is SW-620.
In experiment [4] the test system is HCT-15.
Experiment [5] has as its system K562.
The test system of experiment [6] is NCI-H522.
Experiment [7] relates to NCI/ADR-RES.
For experiment [8], the system named is NCI-H460.
For experiment [9], the system named is RXF 393.
In experiment [10] the test system is SN12C.
Experiment [11] has as its system HL-60.
Experiment [12] concerns UACC-257.
For experiment [13], the system named is LOX IMVI.
In experiment [14] the test system is ACHN.
Experiment [15] has as its system OVCAR-4.
Experiment [16] concerns BT-549.
Experiment [17] relates to HOP-62.
In experiment [18] the test system is TK-10.
For experiment [19], the system named is MDA-MB-435.
Experiment [20] concerns HCT-116.

Turning to `C=C1C(=O)OC2C1C(OC(=O)/C(C)=C/C)CC(O)(CCl)C1C(O)C=C(C)C21O` (stereo not given), the GI50 (commonly the concentration at which growth is held to half of that of the control) was 13.8 µM (inactive) in experiment [1]; 12 µM (inactive) in experiment [2]; 3.85 µM (inactive) in experiment [3]; 3.72 µM in experiment [4]; 3.78 µM (inactive) in experiment [5]; 1.43 µM (inactive) in experiment [6]. Also, the GI50 is 17.9 µM (inactive) in experiment [7]; 16.7 µM (inactive) in [8]; 5.93 µM (inactive) in [9]; 14.4 µM (inactive) in experiment [10]; 2.28 µM (inactive) in experiment [11]; 12.1 µM (inactive) in experiment [12]. In addition, the GI50 in [13] was 4.89 µM (inactive); in experiment [14], 5.79 µM (inactive); in [15] it was 14.2 µM (inactive); in experiment [16], 9.48 µM (inactive); in experiment [17] it was > 46.1 µM (inactive); in experiment [18] it was 14.1 µM (inactive). The figures for the GI50 in experiment [19] and in experiment [20] were 23 µM (inactive) and 6.28 µM (inactive), respectively.
On to `NC(=O)NC(=O)C1CCCCC1C(=O)O` (stereo not given), for which the GI50 in [1] is > 100 µM (inactive); in [2], > 100 µM (inactive); in experiment [3] it was > 100 µM (inactive); in experiment [4] it was above 100 µM; in [5], 5.11 µM (inactive); in experiment [6], > 100 µM (inactive). Moreover, the GI50 in [7], in [8], in [9], in experiment [10], in experiment [11] and in experiment [12] was > 100 µM (inactive) in each case. Further, the GI50 in experiment [13], in experiment [14], in experiment [15], in experiment [16], in experiment [17] and in experiment [18] was > 100 µM (inactive) each time. Also, the GI50 in experiment [19] and in [20] was > 100 µM (inactive) each time.
`C/C(=C\CO)CC/C=C(\C)CNc1ccc([N+](=O)[O-])cc1`: the GI50 is 2.57 µM (inactive) in [1]; 24.8 µM (inactive) in experiment [2]; 56.1 µM (inactive) in experiment [3]; 30.1 µM in experiment [4]; 15 µM (inactive) in experiment [5]; 18 µM (inactive) in [6]. In addition, the GI50 is 22 µM (inactive) in [7]; > 100 µM (inactive) in [8]; > 100 µM (inactive) in experiment [9]; 60.8 µM (inactive) in experiment [10]; 19.6 µM (inactive) in experiment [11]; 21.6 µM (inactive) in experiment [12]. For the same compound, the GI50 in experiment [13] is 22.3 µM (inactive); in [14], 80.4 µM (inactive); in [15] it was 2.98 µM (inactive); in experiment [16] it was 10.1 µM (inactive); in experiment [17], > 100 µM (inactive); in experiment [18] it was 7.67 µM (inactive). Besides, the GI50 in experiment [19] was 28.6 µM (inactive); in [20], 93.5 µM (inactive).
As for `Oc1nc(-c2ccc3ccccc3c2)nc2ccccc12`, the GI50 in experiment [1] is 58.5 µM (inactive); in experiment [2], 43.5 µM (inactive); in [3], > 100 µM (inactive); in experiment [4], above 100 µM; in [5], > 100 µM (inactive); in experiment [6], 73.8 µM (inactive). The GI50 in experiment [7] was 20 µM (inactive); in experiment [8], 21.9 µM (inactive); in [9] it was 25.4 µM (inactive); in experiment [10], 54.1 µM (inactive); in experiment [11], > 100 µM (inactive); in [12], 74.6 µM (inactive). Also, the GI50 in [13] was > 100 µM (inactive); in [14], 13.9 µM (inactive); in [15] it was 3.81 µM (inactive); in experiment [16], > 100 µM (inactive); in [17] it was 14.4 µM (inactive); in experiment [18], 0.771 µM (active). Also, the values for the GI50 in [19] and in experiment [20] were 61.9 µM (inactive) and 18.7 µM (inactive), respectively.
On to `O=[N+]([O-])c1ccc(Sc2c3ccccc3nc3ccccc23)cn1`, for which the GI50 in experiment [1] was 15.9 µM (inactive); in experiment [2] it was > 57.4 µM (inactive); in [3], 3.88 µM (inactive); in experiment [4], 9.55 µM; in [5], 2.49 µM (inactive); in experiment [6] it was 4.08 µM (inactive). Also, the GI50 in [7] is 39.5 µM (inactive); in experiment [8], > 72.9 µM (inactive); in experiment [9], 31.8 µM (inactive); in experiment [10], 18.7 µM (inactive); in experiment [11] it was 10.8 µM (inactive); in experiment [12] it was 15.5 µM (inactive). Moreover, the GI50 in experiment [13] is 13 µM (inactive); in experiment [14], 12.2 µM (inactive); in [15] it was 21.2 µM (inactive); in [16], 14.6 µM (inactive); in experiment [17] it was > 42.6 µM (inactive); in experiment [18], 10.1 µM (inactive). Further, the GI50 in experiment [19] was 16.7 µM (inactive); in [20], 3.6 µM (inactive).
Regarding `CN(C)Cc1ccc(C(C)(C)C)cc1-c1cc(C(C)(C)C)ccc1CN(C)C`, the GI50 in experiment [1] was 77.4 µM (inactive); in experiment [2], 39.2 µM (inactive); in [3] it was > 100 µM (inactive); in experiment [4], 72.3 µM; in experiment [5], 27.8 µM (inactive); in experiment [6], 50.5 µM (inactive). For the same compound, the GI50 in experiment [7] is > 100 µM (inactive); in experiment [8], 51.1 µM (inactive); in [9], 97.1 µM (inactive); in experiment [10], 22.2 µM (inactive); in experiment [11], 86.9 µM (inactive); in experiment [12], 21.6 µM (inactive). Moreover, the GI50 in [13] is 83.6 µM (inactive); in [14], > 100 µM (inactive); in experiment [15] it was 53.7 µM (inactive); in [16], > 100 µM (inactive); in experiment [17], > 100 µM (inactive); in experiment [18] it was > 100 µM (inactive). Further, the GI50 in experiment [19] is 55.6 µM (inactive); in experiment [20], 37.7 µM (inactive).
Regarding `Cc1ccc(-c2cc(-c3ccc(Cl)cc3)nc(/N=C3\C(=O)N(CN4CCOCC4)c4ccccc43)n2)cc1`, the GI50 in experiment [1] was 18.8 µM (inactive); in experiment [2], 30.8 µM (inactive); in experiment [3], 17 µM (inactive); in experiment [4] it was 26.6 µM; in experiment [5] it was 23.1 µM (inactive); in experiment [6] it was 14.3 µM (inactive). Further, the GI50 in experiment [7] is 27.2 µM (inactive); in experiment [8] it was 14 µM (inactive); in experiment [9], 16.4 µM (inactive); in experiment [10], 30.8 µM (inactive); in experiment [11], 9.02 µM (inactive); in [12], 19.5 µM (inactive). For the same compound, the GI50 is 24.2 µM (inactive) in experiment [13]; 23.3 µM (inactive) in experiment [14]; 28.7 µM (inactive) in experiment [15]; 27.5 µM (inactive) in experiment [16]; 28 µM (inactive) in experiment [17]; 31 µM (inactive) in experiment [18]. Further, the GI50 in experiment [19] was 19 µM (inactive); in experiment [20] it was 24.9 µM (inactive).
`CC(C)OC(=O)OCSc1ccccc1/N=C/c1cccc([N+](=O)[O-])c1`: the GI50 was > 10 µM (inactive) in experiment [1]; > 10 µM (inactive) in experiment [2]; > 10 µM (inactive) in experiment [3]; above 10 µM in [4]; > 10 µM (inactive) in [5]; > 10 µM (inactive) in experiment [6]. For the same compound, the GI50 in experiment [7], in experiment [8], in experiment [9], in experiment [10], in experiment [11] and in experiment [12] was > 10 µM (inactive) throughout. Besides, the GI50 in experiment [13], in experiment [14], in experiment [15], in experiment [16], in experiment [17] and in experiment [18] was > 10 µM (inactive) in each case. Further, the GI50 in experiment [19] and in experiment [20] was > 10 µM (inactive) in each case.
Take `Nc1c2c(nc3cc(F)c(F)cc13)CCC2`: the GI50 in [1] was 99.5 µM (inactive); in experiment [2], 52.1 µM (inactive); in experiment [3], 29.2 µM (inactive); in experiment [4], 45.4 µM; in [5], 35.3 µM (inactive); in [6], 72.8 µM (inactive). Also, the GI50 in [7] is 60.1 µM (inactive); in experiment [8] it was 22.1 µM (inactive); in experiment [9], 33.5 µM (inactive); in experiment [10], 43.2 µM (inactive); in experiment [11], 2.82 µM (inactive); in experiment [12] it was 44.4 µM (inactive). Further, the GI50 in experiment [13] is 36.6 µM (inactive); in experiment [14] it was 32.6 µM (inactive); in [15], 58.2 µM (inactive); in [16], > 100 µM (inactive); in experiment [17] it was > 100 µM (inactive); in experiment [18] it was 26.4 µM (inactive). For the same compound, the GI50 in experiment [19] is 54 µM (inactive); in experiment [20], 38 µM (inactive).
Regarding `CCN(CC)CCCNc1ncc(C)c2c1c1ccc3c(O)cccc3c1n2C`, the GI50 in experiment [1] is 1.8 µM (inactive); in experiment [2], 3.02 µM (inactive); in [3], 0.883 µM (active); in [4], 2.74 µM; in experiment [5], 1.5 µM (inactive); in experiment [6], 1.05 µM (active). Further, the GI50 in experiment [7] was 2.81 µM (inactive); in experiment [8], 1.02 µM (active); in [9], 1.95 µM (inactive); in experiment [10], 2.7 µM (inactive); in experiment [11], 0.603 µM (active); in experiment [12] it was 16.3 µM (inactive). In addition, the GI50 is 1.29 µM (inactive) in experiment [13]; 1.8 µM (inactive) in [14]; 1.66 µM (inactive) in [15]; 1.89 µM (inactive) in experiment [16]; 0.964 µM (active) in experiment [17]; 10.5 µM (inactive) in experiment [18]. Also, the GI50 in experiment [19] was 8.07 µM (inactive); in [20], 1.05 µM (active).
